The text below walks through data of PMC11111408, “Concurrent inhibition of oncogenic and wild-type RAS-GTP for cancer therapy” (Nature, 2024).

The subject of series [1] is NCI-H441, HPAC and SW620 CDX models. The series can be described thus: CDX models, RMC-7977 versus SHP2 and MEK inhibitors. The note with it: three KRAS^G12X models; RMC-7977 10 mg kg^−1 once daily, RMC-4550 20 mg kg^−1 every 2 days, cobimetinib 2.5 mg kg^−1 once daily, alone or in combination.
Experimental: Data are mean ± s.e.m. of 3–18 mice per group.
Female BALB/c nude mice, NOD SCID and NSG mice 6-8 weeks old from Beijing Vital River/VR Laboratory Animal Co., LTD, Beijing AniKeeper Biotech Co., Ltd., Shanghai Sino-British SIPPR/BK Laboratory Animal Co., LTD and The Jackson Laboratory were used. Animals were housed in polycarbonate cages, in an environmentally monitored, well ventilated room maintained at a constant temperature of 20-26°C and relative humidity of 40-80%. Fluorescent lighting provided illumination approximately 12 hours per day. Each mouse was inoculated at the right flank with tumor cells (2x10^6-1x10^7) in 100-200 µL of media/PBS supplemented with Matrigel (1:1). Treatments were started when the average tumor size reached 100-250 mm^3. […] Mice on studies were weighed and tumor measurements collected twice weekly. Human primary cancer xenograft models were generated using fresh cancer tumor fragments obtained from hospitals with informed consent from the patients in accordance with protocols approved by the Hospital Institutional Ethical Committee (IEC). Tumor fragments were serial-passaged in BABL/c nude mice and then cryopreserved. Cryopreserved tumors were recovered by implantation in BALB/c nude mice and further serial passaged and frozen for study implantation use. Recovered tumor fragments of about 15-30 mm3 in size from each model were implanted into right flanks of Balb/c nude mice. Treatment started when average tumor volume reached 100-250mm^3. For efficacy study, Animals were assigned to study groups using stratified randomization based upon their tumor volumes (n=3-10/group). […] Animals were treated for 28 days (or up to 110 for selected models) or an earlier time if tumor burden reached humane endpoint. Mean ± s.e.m was plotted in the waterfall plots. The dashed line on waterfall plot indicates a 10% reduction in tumor volume from baseline. […] Body weights were collected twice a week during the study. For single-dose pharmacokinetic/pharmacodynamics (PK/PD) study, mice were randomized into treatment groups when mean tumor volume reached 400-600 mm^3.
The subject of series [2] is Pa16C cells expressing MEK1 mutants. The series can be described thus: Proliferation (Calcein AM) of Pa16C cells expressing MEK1 mutants. The series is classed as cell-based, human.
Another series deals with T1, CYPA (Homo sapiens, UniProt P62937).
T1 construct: His6-TEV-AviTag-CYPA (full-length); His6-TEV (N); made in house; host or cells: BL21(DE3) Escherichia coli
Nature of the series: CYPA binding affinity (Kd1), SPR. The note with it: steady state, (95% CI). The protocol: The binding affinity of compounds for CYPA (Kd1) was assessed by SPR on a Biacore 8K instrument as previously described.

In series [3] the test system is Capan-1 cells. Nature of the series: Cellular ERK phosphorylation (pERK). The series is classed as cell-based. To be noted: Homo sapiens; Capan-1 (KRAS^G12V PDAC); (95% CI).
The test system of series [4] is A375 cells. Nature of the series: Cellular ERK phosphorylation (pERK). The series is classed as cell-based, human. The note with it: Homo sapiens, A-375; A375 (BRAF^V600E).
Series [5] deals with Capan-1 cells. The series can be described thus: Cell proliferation (CTG). It counts as cell-based. The note with it: Homo sapiens; Capan-1, CTG; (95% CI). The protocol: (§1) Alternatively, cells were seeded in round-bottom ultra-low attachment 96-well plates, centrifuged at 1,000 rpm for 10 min to pellet the cells, and incubated overnight or up to 72 h to allow for 3D spheroid formation. […] Cell viability was determined by CellTiter-Glo 2.0 reagent (2D CTG) (Promega, G9243) or 3D CellTiter-Glo reagent (3D CTG) (Promega, G9683) according to the manufacturer’s protocols. Luminescence was detected using a SpectraMax M5 Plate Reader (Molecular Devices) of Perkin Elmer Enspire. Luminescence signal was normalized to vehicle-treated wells (normalized signal (%) = (luminescence (treated)/mean luminescence (vehicle)) × 100%). […] Data were plotted as log [inhibitor (M)], and a four-parameter sigmoidal concentration response model was fitted to the data to calculate EC50. […] Pa16C MEK1 mutant cells were evaluated by live-cell counting using Calcein AM and a SpectraMax i3X multi-mode detection platform (Molecular Devices). Growth percentages were calculated by normalizing the treated cell counts to their respective untreated cell counts.

Series [6] deals with A375 cells. The series can be described thus: Cell proliferation (CTG). It counts as cell-based, human. The note with it: Homo sapiens, A-375; A375, CTG; (95% CI). As to the method: as §1
Series [7] can be described thus: Oral bioavailability in mice (LC-MS/MS of blood). It counts as in vivo. To be noted: mouse, whole blood, read-out: Oral Bioavailability m%F.
Another series concerns the target KRAS^G12V (Homo sapiens, UniProt P01116+P62937, G12V). Nature of the series: RAS binding affinity of compound-bound CYPA (Kd2), SPR. Also noted: His6-TEV (N); made in house; host or cells: BL21(DE3) Escherichia coli. The note with it: steady state, (95% CI).
Series [8] deals with AsPC-1 and NCI-H441 cells. Nature of the series: pERK (MSD) and proliferation (CTG) in AsPC-1 and NCI-H441 cells, CYPA inhibitor co-treatment or PPIA KO. It counts as cell-based, human. The note with it: for activity at 0.00046 µM: 0.46 nM.
Another series relates to RAS-less MEFs. Nature of the series: Western blots of isogenic RAS-less MEF cells expressing KRAS variants or BRAF(V600E). It counts as cell-based, mouse. To be noted: 24 h, western blot. A general note: A western blot detects proteins with antibodies after separation by electrophoresis.

SMILES strings stand for the structures. “And” between values parts separate entries of the source, which are not always exact repeats. Equal entries are not always repeated. Where two headings read alike, the source gives them in different places. Some results are limits rather than exact numbers.

In the case of `Cc1nc(N2CCC3(CC2)CO[C@@H](C)[C@H]3N)c(CO)nc1-c1cccc(Cl)c1Cl` [RMC-4550], in series [1], the anti-tumour activity result is “only modest tumour growth inhibition”.
Take `O=C(Nc1ccc2[nH]nc(-c3ccncc3)c2c1)[C@@H]1CCN(CC(=O)N2CCN(c3ccc(-c4ncccn4)cc3)CC2)C1` [SCH772984]: the “Proliferation of Pa16C cells expressing MEK1 mutant constructs” value (“Proliferation” below) was 102.4 and 93.7 and 111.1 and 109.2 in series [2] (MEK1E102-I103del, inhibitor 0.046 nM); 88.7 and 97.2 and 116.5 and 112.2 in [2] (MEK1E102-I103del, inhibitor 0.412 nM); 62.5 and 77.2 and 97.3 and 86.7 in [2] (MEK1E102-I103del, inhibitor 1.235 nM); 116 and 117.1 and 131.7 and 130.6 in series [2] (MEK1K57N, inhibitor 0.046 nM); 139 and 146.7 and 118.9 and 144.8 in series [2] (MEK1K57N, inhibitor 0.412 nM); 153.6 and 157.6 and 123.4 and 129.5 in [2] (MEK1K57N, inhibitor 1.235 nM). Moreover, the “Proliferation” value in series [2] (MEK1K57N, inhibitor 3.704 nM) is 116.2 and 140.9 and 100.4 and 107.4; in [2] (MEK1K57N, inhibitor 11.111 nM), 83.1 and 119.2 and 75.2 and 67; in series [2] (MEK1Q56P, inhibitor 0.046 nM) it was 136.2 and 107 and 127.7 and 113.2; in series [2] (MEK1Q56P, inhibitor 0.412 nM), 178.1 and 122.6 and 149.9 and 115.3; in series [2] (MEK1Q56P, inhibitor 1.235 nM) it was 166.6 and 134 and 125.8 and 104.6; in series [2] (MEK1Q56P, inhibitor 3.704 nM), 131.2 and 128.6 and 108.4 and 83.5. For the same compound, the “Proliferation” value in [2] (MEK1S218D/S222D, inhibitor 0.046 nM) was 105.3 and 97.5 and 108.4 and 102.6; in [2] (MEK1S218D/S222D, inhibitor 0.412 nM) it was 90.3 and 97.7 and 107.5 and 108.3; in series [2] (MEK1S218D/S222D, inhibitor 1.235 nM), 59.2 and 93.4 and 100.5 and 90.2; in series [2] (MEK1WT, inhibitor 0.046 nM), 113.6 and 107.4 and 114.6 and 111.6; in series [2] (MEK1WT, inhibitor 0.412 nM) it was 127.4 and 95.8 and 106.8 and 108.8; in [2] (MEK1WT, inhibitor 1.235 nM), 95.9 and 89.3 and 90.3 and 82.4. Moreover, the “Proliferation” value in [2] (MEK1WT, inhibitor 3.704 nM) was 49.4 and 66.6 and 61 and 49.7; in series [2] (MEK1WT, inhibitor 11.111 nM), 29.9 and 38 and 33.3 and 24.2.
Regarding `CCn1c(-c2cccnc2[C@H](C)OC)c2c3cc(ccc31)-c1csc(n1)C[C@H](NC(=O)[C@H]1CCO1)C(=O)N1CCC[C@H](N1)C(=O)OCC(C)(C)C2` [Compound 3], the figures for the Kd on CYPA and on KRAS^G12V were 6.27 µM and 0.818 µM, respectively. For the same compound, the EC50 in the series with Capan-1 cells [3] is 0.124 µM; in the series on A375 cells [4], greater than 10 µM; in the series with Capan-1 cells [5] it was 0.615 µM; in the series on A375 cells [6], greater than 10 µM. Further, the bioavailability in series [7] stood at 44%.
On CYPA, `CCn1c(-c2cccnc2[C@H](C)OC)c2c3cc(ccc31)-c1csc(n1)C[C@H](NC(=O)[C@H](C(C)C)N(C)C(C)=O)C(=O)N1CCC[C@H](N1)C(=O)OCC(C)(C)C2` [Compound 2] came in with a dissociation constant Kd of 0.33 µM. Also, the EC50 in the series on Capan-1 cells [3] is 0.0316 µM; with A375 cells [4] it was greater than 10 µM; in the series on Capan-1 cells [5], 0.149 µM; with A375 cells [6], greater than 10 µM. Also, the bioavailability in series [7] is 0.4%.
With `O=C(c1ccc(F)c(F)c1Nc1ccc(I)cc1F)N1CC(O)([C@@H]2CCCCN2)C1` [cobimetinib], the anti-tumour activity result in [1] was “only modest tumour growth inhibition”.
As to `CCn1c(-c2cc(N3CCN(C)CC3)cnc2[C@H](C)OC)c2c3cc(ccc31)-c1csc(n1)C[C@H](NC(=O)[C@H]1CCO1)C(=O)N1CCC[C@H](N1)C(=O)OCC(C)(C)C2` [Compound 4], the Kd turned out to be 0.605 µM at CYPA and 0.292 µM at KRAS^G12V. Further, the EC50 was 0.00194 µM in the series with Capan-1 cells [3], greater than 10 µM in the series with A375 cells [4], 0.0142 µM in the series on Capan-1 cells [5] and 6.95 µM with A375 cells [6].
For the compound `CC(=O)Nc1cccc(-n2c(=O)n(C3CC3)c(=O)c3c(Nc4ccc(I)cc4F)n(C)c(=O)c(C)c32)c1` [trametinib, reference compound], in [8] (AsPC-1 and NCI-H441, pERK and proliferation), the “effect of disruption of the PPIA locus on sensitivity” value is “did not affect sensitivity”. Also, the activity at 16.9 pM in series [8] (Homo sapiens, ASPC1, AsPC-1, […], read-out: pERK inhibition in PPIA KO cells treated with trametinib) is 106%. Also, the activity at 0.00046 µM in series [8] (Homo sapiens, ASPC1, AsPC-1 PPIA KO, read-out: pERK inhibition in PPIA KO cells treated with trametinib) came out at 47%; in series [8] (Homo sapiens, NCI-H441, NCI-H441 PPIA KO, read-out: pERK inhibition in PPIA KO cells treated with trametinib), 59%. Also, the activity at 0.00412 µM was determined as 25.5% in series [8] (Homo sapiens, ASPC1, AsPC-1 PPIA KO, 4.12 nM, read-out: Proliferation inhibition in PPIA KO cells treated with trametinib); 49.5% in [8] (Homo sapiens, NCI-H441, NCI-H441, 4.12 nM, read-out: Proliferation inhibition in PPIA KO cells treated with trametinib); 47% in [8] (Homo sapiens, NCI-H441, NCI-H441 PPIA KO, 4.12 nM, read-out: Proliferation inhibition in PPIA KO cells treated with trametinib). Besides, the activity at 0.037 µM amounted to 9.16% in series [8] (Homo sapiens, ASPC1, AsPC-1 PPIA KO, 37.00 nM, read-out: Proliferation inhibition in PPIA KO cells treated with trametinib); 44.6% in series [8] (Homo sapiens, NCI-H441, NCI-H441, 37.00 nM, read-out: Proliferation inhibition in PPIA KO cells treated with trametinib); 40.9% in [8] (Homo sapiens, NCI-H441, NCI-H441 PPIA KO, 37.00 nM, read-out: Proliferation inhibition in PPIA KO cells treated with trametinib). Further, the activity at 0.333 µM in series [8] (Homo sapiens, ASPC1, AsPC-1 PPIA KO, 333.00 nM, read-out: Proliferation inhibition in PPIA KO cells treated with trametinib) was found to be 4.83%; in [8] (Homo sapiens, NCI-H441, NCI-H441, 333.00 nM, read-out: Proliferation inhibition in PPIA KO cells treated with trametinib), 42.2%; in series [8] (Homo sapiens, NCI-H441, NCI-H441 PPIA KO, 333.00 nM, read-out: Proliferation inhibition in PPIA KO cells treated with trametinib) it was 37.7%. In addition, in series [8] (Homo sapiens, NCI-H441, NCI-H441, 0.05 nM, read-out: Proliferation inhibition in PPIA KO cells treated with trametinib), the activity at 50 pM is 120%. Besides, the activity at 1 µM in series [8] (Homo sapiens, NCI-H441, NCI-H441, 1000.00 nM, read-out: Proliferation inhibition in PPIA KO cells treated with trametinib) was determined as 35.6%; in series [8] (Homo sapiens, NCI-H441, NCI-H441 PPIA KO, 1000.00 nM, read-out: Proliferation inhibition in PPIA KO cells treated with trametinib) it was 28.5%. Besides, the “pERK suppression in RAS-less MEFs” value in the series on RAS-less MEFs was “reduced pERK similarly in all cells”.

What is called Kd is the free concentration of one partner at which half of the binding sites on the other are occupied at equilibrium, for simple one-to-one binding. High values mean a looser complex, low ones a tighter complex. In general, EC50 refers to the midpoint of the concentration-response curve. Lower therefore signals greater potency. As usually defined, the bioavailability is dose-corrected exposure relative to a reference, in per cent.
